Series [1] deals with T1, N6-adenosine-methyltransferase catalytic subunit (Homo sapiens, UniProt Q86U44). Put plainly: Inhibition of METTL3 (unknown origin) assessed as remaining activity at 500 uM relative to control.
In series [2] the target is T1, N6-adenosine-methyltransferase catalytic subunit. The experiment in a line: Inhibition of METTL3 (unknown origin).
The nature of series [3]: Efflux ratio of apparent permeability across basolateral to apical side over apical to basolateral side in human Caco-2 cells. In kind it is ADME, cell-based. In general terms: Passage across Caco-2 layers is used to estimate intestinal permeability.
Series [4] is described as follows: Apparent permeability across basolateral to apical side in human Caco-2 cells. In kind it is ADME, cell-based.
Series [5] is described as follows: Apparent permeability across apical to basolateral side in human Caco-2 cells. It counts as ADME, cell-based.

T1 sequence (Q86U44 whole entry): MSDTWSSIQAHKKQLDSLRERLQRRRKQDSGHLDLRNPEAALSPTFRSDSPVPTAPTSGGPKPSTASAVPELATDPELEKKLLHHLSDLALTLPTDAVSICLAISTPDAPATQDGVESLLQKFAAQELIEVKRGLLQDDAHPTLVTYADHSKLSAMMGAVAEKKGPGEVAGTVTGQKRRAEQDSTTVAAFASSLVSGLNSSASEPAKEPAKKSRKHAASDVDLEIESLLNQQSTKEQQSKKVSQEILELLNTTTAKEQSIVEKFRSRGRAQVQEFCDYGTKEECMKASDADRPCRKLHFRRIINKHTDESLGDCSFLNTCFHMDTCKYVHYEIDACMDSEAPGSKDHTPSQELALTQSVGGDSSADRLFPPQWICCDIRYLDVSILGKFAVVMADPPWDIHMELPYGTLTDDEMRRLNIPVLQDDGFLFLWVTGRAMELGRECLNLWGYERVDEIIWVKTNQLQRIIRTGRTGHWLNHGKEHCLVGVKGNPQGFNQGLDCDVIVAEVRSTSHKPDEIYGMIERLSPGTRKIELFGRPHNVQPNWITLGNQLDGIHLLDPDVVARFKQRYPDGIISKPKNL

Broadly, the IC50 is the midpoint of a concentration-inhibition curve. Low readings indicate higher potency, high ones lower potency. For the compound `Nc1ncnc2c1ncn2C[C@H]1OC[C@@H](N)[C@H](O)[C@@H]1O`, in series [1], the Activity turned out to be 107%. The IC50 in series [2] was > 250 µM.
On to `CC[C@H]1OC(=O)[C@H](C)[C@@H](O[C@H]2C[C@@](C)(OC)[C@@H](O)[C@H](C)O2)[C@H](C)[C@@H](O[C@@H]2O[C@H](C)C[C@H](N(C)C)[C@H]2O)[C@](C)(O)C[C@@H](C)C(=O)[C@H](C)[C@@H](O)[C@]1(C)O` [ERYTHROMYCIN], for which the Ratio in series [3] worked out at 62.9. The Papp in series [4] is recorded as 17.5 10^-6 cm/s; in series [5], 0.2 10^-6 cm/s.
Usually efflux ratio stands for a quotient of directional permeabilities that is used to spot active efflux. Usually Papp B→A stands for the apparent permeability from the basolateral to the apical side of a cell layer. The term Papp A→B denotes the apparent permeability from the apical to the basolateral side of a cell layer. `COCCc1ccc(OCC(O)CNC(C)C)cc1` (configuration not stated) [METOPROLOL]: the efflux ratio in series [3] stood at 1.1. Moreover, the Papp B→A in series [4] was 33.3 ×10⁻⁶ cm/s. Further, the Papp A→B in series [5] worked out at 31.4 ×10⁻⁶ cm/s.
Take `Nc1ncnc2c1ncn2[C@@H]1O[C@H](C(=O)NCCCNC(=O)c2ccccn2)[C@@H](O)[C@H]1O`: in series [1], the Activity turned out to be 38%. Moreover, half-maximal inhibition in series [2] (IC50) was put at 332 µM.
Consider `Nc1ncnc2c1ncn2[C@@H]1O[C@H](C(=O)NCCCCN2CCCC2)[C@@H](O)[C@H]1O`, for which the midpoint of inhibition in series [2], the IC50, lay at 8.7 µM.
With `Nc1ncnc2c1ncn2[C@@H]1O[C@H](C(=O)NCC2CCNCC2)[C@@H](O)[C@H]1O`, the half-inhibitory concentration (IC50) in series [2] was > 250 µM.
On to `CN1CCC(NC(=O)[C@H]2O[C@@H](n3cnc4c(N)ncnc43)[C@H](O)[C@@H]2O)CC1`, for which, in series [1], the Activity was 18%. In series [2], this compound returned an IC50 of 65 µM.
Compound `Nc1ncnc2c1ncn2[C@@H]1O[C@H](CO)[C@@H](O)[C@H]1O` [ADENOSINE] showed a 50% inhibitory concentration (IC50) in series [2] of 495 µM.
Regarding `CNC1CCC(O)(Cn2cnc3c(N)ncnc32)C(O)C1` (configuration not stated), the Activity in series [1] is 20%. The compound further registered an IC50 in series [2] of 98 µM.
